[ ]: non-standard residue; d: D form. d(aIle) = CC[C@H](C)[C@@H](N)C(=O)O; Nva = CCC[C@H](N)C(=O)O; Sar = CNCC(=O)O

This experiment has as its system HT-1080 cells. Put plainly: HT-1080 tumor growth inhibition in SCID mice (subcutaneous flank xenograft). Format: in vivo. To be noted: peptide 120 Mpk BID SC and/or bevacizumab 3.0 Mpk twice per week SC; for % T/C: size of tumor treated/control. The method, then:
Female SCID mice (Charles River Laboratories, Wilmington, Mass., USA) with an average body weight of 18.7 g were inoculated subcutaneously into the right flank with 0.1 mL of about 0.5×10^6 HT-1080 cells (1:1 matrigel) on a Friday. Day 3, post inoculation (Monday), the mice were ear tagged and randomized into groups of ten control and treated groups. The representative prodrug of a peptidomimetic of the second of the three Type-1 repeats of TSP-1, N-Ac-Sar-Gly-Val-D-alloIle-Thr-Nva-Ile-Arg-Pro-NHCH2CH3 (120 mpk), was administered twice per day (BID) during the dosing regimen, and the representative […] bevacizumab (3 mpk) was administrated each Monday and Wednesday during the same dosing regimen. Tumors were measured with calipers every Monday, Wednesday and Friday days beginning at day 3, post inoculation. Tumor volumes were calculated according to the formula V=L×W^2/2, wherein V is volume (mm^3), L is length and W is width. Antitumorigenesis was measured by percent tumor growth inhibition (TGI).
The term “mpk,” as used herein, means milligrams drug per kilogram mammal.
The term “SE,” as used herein, means standard error.
The term “T/C,” as used herein, means size of tumor (treated/control).
The term “SC,” as used herein, means subcutaneously.
The term “p-value,” as used herein, means confidence level of comparison to control.
Controls comprised vehicle only. Vehicles for N-Ac-Sar-Gly-Val-D-alloIle-Thr-Nva-Ile-Arg-Pro-NHCH2CH3 and bevacizumab were D5W (5% glucose in water) and isotonic saline (0.9% NaCl in water), respectively.

Ac-[Sar]GV[d(aIle)]T[Nva]IRP-NHEt: the “% TGI (percent tumor growth inhibition)” value is given as 30.24% (Day 7), 41.61% (Day 10), 44.30% (Day 12) and 48.79% (Day 14). The “% T/C” value is 69.76% (Day 7), 58.39% (Day 10), 55.70% (Day 12) and 51.21% (Day 14).
Take bevacizumab: the “% TGI (percent tumor growth inhibition)” value by setting is: (Day 7) 33.68%; (Day 10) 39.40%; (Day 12) 39.25%; (Day 14) 58.30%. For the same substance, the “% T/C” value reads like this: (Day 7) 66.32%; (Day 10) 60.60%; (Day 12) 60.75%; (Day 14) 41.70%.

Source of the values: patent US20060258597A1, “Antitumorigenic drug combination and dosing schedule” (priority 2005, published 2006).
